ChEMBL document CHEMBL1135540, “Identification of a pharmacophore for thrombopoietic activity of small, non-peptidyl molecules. 2. Rational design of naphtho[1,2-d]imidazole thrombopoietin mimics” (J Med Chem, 2002)

Experiments:
[1] = Efficacy in activation of luciferase expression in BAF-3/TPO-Rluc cell line and the value is reported as %TPO; type: functional, Homo sapiens
[2] = (§1) Activation of luciferase expression in BAF-3/TPO-Rluc cell line.; type: cell-based; conditions: Homo sapiens
[3] = as §1; type: functional, cell-based; conditions: Homo sapiens
UT7 [4] = assay: Efficacy in proliferation of the UT7/TPO-R cell line and the value is reported as %TPO; type: functional, Homo sapiens
UT7 [5] = assay: Effective concentration for proliferation of UT7/TPO-R cell line.; type: functional, cell-based; conditions: Homo sapiens
[6] = Activation of luciferase expression in the proliferation of UT7/TPO-R cell line.; type: functional; conditions: Homo sapiens
[7] = Agonistic activity against proliferation of UT-7/TPO-R cell line; type: functional; conditions: Homo sapiens, UT7/TPO-R
[8] = Efficacy in activation of luciferase expression in UT-7/TPO-R cell line and the value is reported as % salicylaldehyde thio-semicarbazone-thrombopoietin (TPO); type: functional, Homo sapiens

| Structure (SMILES) | TPO [1] | EC50 [3] | TPO (UT7 [4]) | further results |
| --- | --- | --- | --- | --- |
| CC(C)(C)c1ccc(-c2cccc(-c3nc4c(ccc5cc(S(=O)(=O)O)cc(O)c54)[nH]3)c2)cc1 | 100% | – | – | EC50 [2]: 80 nM |
| O=S(=O)(O)c1cc(O)c2c(ccc3[nH]c(-c4c(O)ccc5ccccc45)nc32)c1 | 11% | 26000 nM | <10% | – |
| Cc1ccc(-c2cccc(-c3nc4c(ccc5cc(S(=O)(=O)O)cc(O)c54)[nH]3)c2O)cc1C | 36% | 1200 nM | 70% | EC50 (UT7 [5]): 1000 nM |
| O=S(=O)(O)c1cc2[nH]c(-c3ccc4ccccc4c3O)nc2c2c(O)cccc12 | 28% | 4800 nM | <10% | – |
| Cc1ccc(-n2[nH]c(C)c(/N=N/c3c(O)cc(S(=O)(=O)O)c4ccccc34)c2=O)cc1C | – | – | – | EC50 [6]: 40 nM |
| CC(C)(C)c1ccc(-c2cccc(-c3nc4c(ccc5cc(C(=O)O)cc(O)c54)[nH]3)c2)cc1 | – | – | – | EC50 [7]: 300 nM; TPO [8]: 60% |
| Cc1ccc(-c2cccc(/C=N/N=C(\S)Nc3cccc(C(=O)O)c3)c2O)cc1C | – | – | – | EC50 [6]: 30 nM |
| O=S(=O)(O)c1cc2[nH]c(-c3c(O)ccc4ccccc34)nc2c2c(O)cccc12 | 52% | 35000 nM | <10% | – |
| O=S(=O)(O)c1cc(O)c2c(ccc3[nH]c(-c4ccc5ccccc5c4O)nc32)c1 | 27% | 9700 nM | <10% | – |
